Entries after “also recorded” stand apart in the source; their conditions may differ.
Tests used:
[1] = test system: progesterone-induced endometrial proliferation; test: AntiClauberg test; format: in vivo, rabbit; set-up: key to ANTIPROGESTATIONAL Anti-Clauberg: relative oral potency vs. reference compound set to 100; settings: for ANTIPROGESTATIONAL ACTIVITY ANTI-CLAUBERG: estrogen-primed immature rabbits, CDB-2477 = 1.0 (assigned); for BIOLOGICAL ACTIVITY antiClauberg: Table 2; for BIOLOGICAL ACTIVITY antiClauberg / ANTIPROGESTATIONAL Anti-Clauberg: CDB-2914 = 100 (assigned); for antiClauberg / oral antiprogestational activity, in words: versus the standard 69B; for ANTIPROGESTATIONAL Anti-Clauberg: relative potency
Method in brief: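 Immature NZW rabbits were estradiol-primed s.c. for 6 days, then given progesterone 0.8 mg/day s.c. plus compound orally or s.c. for 5 days. Uteri were sectioned and H&E-scored for endometrial glandular proliferation (McPhail). Percent inhibition was calculated per dose versus progesterone-only animals.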

[2] = biological target: T1, glucocorticoid receptor (estrogen-primed rabbit thymus) (Oryctolagus cuniculus, UniProt P59667); test: Relative binding affinity, glucocorticoid receptor; settings: for binding affinity for the glucocorticoid receptor, in words: rabbit thymus, versus CDB-2914 (69B) where stated; for BINDING AFFINITY Glucocortic: Table 2; for BINDING AFFINITY Glucocortic / RELATIVE BINDING AFFINITY Glucocorticoid: estrogen-primed rabbit thymus, dexamethasone = 100%
T1 construct: preparation of cytosols for the progesterone and glucocorticoid receptor assays; from tissue; host or cells: thymus of estradiol-primed immature female New Zealand White rabbits (cytosol)
T1 sequence (P59667 1-772): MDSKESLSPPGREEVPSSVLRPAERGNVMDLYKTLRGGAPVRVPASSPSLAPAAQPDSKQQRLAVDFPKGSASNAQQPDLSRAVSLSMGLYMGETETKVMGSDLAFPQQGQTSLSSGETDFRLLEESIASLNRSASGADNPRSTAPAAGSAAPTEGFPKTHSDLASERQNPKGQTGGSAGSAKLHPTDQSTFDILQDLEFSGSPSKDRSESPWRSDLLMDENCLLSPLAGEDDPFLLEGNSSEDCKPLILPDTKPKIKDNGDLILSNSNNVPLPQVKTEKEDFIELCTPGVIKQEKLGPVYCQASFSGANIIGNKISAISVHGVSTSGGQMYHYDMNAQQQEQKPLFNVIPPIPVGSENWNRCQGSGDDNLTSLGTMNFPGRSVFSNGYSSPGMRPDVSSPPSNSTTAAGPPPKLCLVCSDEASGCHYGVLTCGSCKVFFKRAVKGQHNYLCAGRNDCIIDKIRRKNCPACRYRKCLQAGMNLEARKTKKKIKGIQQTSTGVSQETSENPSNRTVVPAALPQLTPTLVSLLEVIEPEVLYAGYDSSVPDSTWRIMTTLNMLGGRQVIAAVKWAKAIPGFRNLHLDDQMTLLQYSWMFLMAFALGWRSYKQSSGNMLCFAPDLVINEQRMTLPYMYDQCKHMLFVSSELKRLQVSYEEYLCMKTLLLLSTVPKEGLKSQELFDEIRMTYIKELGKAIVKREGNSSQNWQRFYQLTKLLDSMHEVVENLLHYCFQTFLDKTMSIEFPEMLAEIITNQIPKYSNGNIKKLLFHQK

Row | SMILES | binding affinity for the glucocorticoid receptor, in words [2] | BIOLOGICAL ACTIVITY antiClauberg ([1]; oral) | BINDING AFFINITY Glucocortic [2] | antiClauberg / oral antiprogestational activity, in words ([1]; oral) | ANTIPROGESTATIONAL Anti-Clauberg ([1]; oral) | RELATIVE BINDING AFFINITY Glucocorticoid [2] | further results
1 | CC#C[C@]1(O)CC[C@H]2[C@@H]3CCC4=CC(=O)CCC4=C3[C@@H](c3ccc(N(C)C)cc3)C[C@@]21C [mifepristone] | greater binding affinity | – | – | – | – | – | ANTIPROGESTATIONAL ACTIVITY ANTI-CLAUBERG ([1]; oral): 1.0
2 | COCC(=O)C1(OC(C)=O)CCC2C3CCC4=CC(=O)CCC4=C3C(c3ccc(N4CCCCC4)cc3)CC21C (stereo not drawn) [Compound 123a, 17α-Acetoxy-1113-[4-(N-piperidino)phenyl]-21-methoxy-19-norpregna-4,9-diene-3,20-dione] | – | 45-83 | 11% | – | – | – | –
3 | CC(=O)O[C@]1(C(C)=O)CC[C@H]2[C@@H]3CCC4=CC(=O)CCC4=C3[C@@H](c3ccc(N4CCCCC4)cc3)C[C@@]21C [Compound 71, 17α-Acetoxy-11β-[4(N-Piperidino)phenyl]-19-norpregna-4,9-diene-3,20-dione] | low binding affinity | 253 | 20% | greater activity than the standard | – | – | –
4 | COCC(=O)[C@@]1(OC)CC[C@H]2[C@@H]3CCC4=CC(=O)CCC4=C3[C@@H](c3ccc(N(C)C)cc3)C[C@@]21C [Compound 113a, 17α,21-Dimethoxy-11β-[4-(N,N-dimethylamino)phenyl]-19-norpregna-4,9-diene-3,20-dione] | reduced binding affinity | 229 | 62% | greater activity than the standard; also recorded: more than twice as active at the standard | – | – | –
5 | CC(=O)O[C@]1(C(=O)CF)CCC2C3CCC4=CC(=O)CCC4=C3C(c3ccc(N(C)C)cc3)C[C@@]21C (stereo partly drawn) [Compound 13, 17α-acetoxy-21-fluoro-11β-[4-(N,N-dimethylamino)phenyl]-19-norpregna-4,9-diene-3,20-dione] | – | – | – | – | 80 | 109% | –
6 | CC(=O)O[C@]1(C(=O)CO)CCC2C3CCC4=CC(=O)CCC4=C3C(c3ccc(N(C)C)cc3)C[C@@]21C (stereo partly drawn) [Compound 41, 17α-acetoxy-21-hydroxy-11β-[4-(N,N-dimethylamino)phenyl]-19-norpregna-4,9-diene-3,20-dione] | – | – | – | greater activity than the standard | 140 | 71% | –
7 | CC(=O)O[C@]1(C(C)=O)CC[C@H]2[C@@H]3CCC4=CC(=O)CCC4=C3[C@@H](c3ccc(N(C)C)cc3)C[C@@]21C [Compound 69B, 17α-acetoxy-11β-(4-N,N-dimethylaminophenyl)-19-norpregna-4,9-diene-3,20-dione, reference compound] | – | 100 | 114% | – | 100 | 114% | potency of the standard relative to mifepristone in the antiClauberg test ([1]; oral administration): 3 times; ANTIPROGESTATIONAL ACTIVITY ANTI-CLAUBERG ([1]; oral): 3.27; potency of 69B relative to mifepristone in the antiClauberg test ([1]; oral, 95% C.I.=1.41-7.58, previous studies): 3.27 ×
8 | CC(=O)OCC(=O)[C@@]1(OC(C)=O)CC[C@H]2[C@@H]3CCC4=CC(=O)CCC4=C3[C@@H](c3ccc(C(C)=O)cc3)C[C@@]21C [Compound 106b, 17α,21-Diacetoxy-11β-(4-acetylphenyl)19-norpregna-4,9-diene-3,20-dione] | – | 34 | 14% | – | – | – | –
9 | CN(C)c1ccc(C2CC3(C)C(CCC34OCC4=O)C3CCC4=CC(=O)CCC4=C23)cc1 (stereo not drawn) [Compound 12, 17-Spirooxetano-3′-oxo-11β-[4-(N,N-dimethylamino)phenyl]-19-norpregna-4,9-dien-3-one] | – | – | – | – | 29 | 32% | –
10 | CC(=O)O[C@]1(C(=O)CCl)CCC2C3CCC4=CC(=O)CCC4=C3C(c3ccc(N(C)C)cc3)C[C@@]21C (some centres unmarked) [Compound 14A] | – | – | – | – | 68 | 90% | –
11 | CC(=O)OCC(=O)[C@@]1(OC(C)=O)CCC2C3CCC4=CC(=O)CCC4=C3C(c3ccc(N(C)C)cc3)C[C@@]21C (stereo partly drawn) [Compound 15, 17α,21-diacetoxy-11β-[4-(N,N-dimethylamino)phenyl]-19-norpregna-4,9-diene-3,20-dione] | substantial reduction in glucocorticoid binding affinity; also recorded: low binding affinity | – | – | greater activity than the standard | 279 | 51% | antiprogestational potency compared to the lead compound (CDB-2914), oral antiClauberg test ([1]; oral, versus CDB-2914): 2.79 times

From patent US6900193B1, “Structural modification of 19-norprogesterone I: 17-α-substituted-11-β-substituted-4-aryl and 21-substituted 19-norpregnadienedione as new antiprogestational agents” (The United States of America as represented by the …, priority 1996, dated 2005)
